According to ChEMBL document CHEMBL4715817, “Python Cathelicidin CATHPb1 Protects against Multidrug-Resistant Staphylococcal Infections by Antimicrobial-Immunomodulatory Duality” (J Med Chem, 2018):
Converted amounts (≈) assume the structure as drawn. The source made the active and inactive calls. The rule behind the calls is not given here. Peptide text beside a SMILES is read from it.

Legend:
Escherichia coli = test: Antimicrobial activity against Escherichia coli IS 08040726 incubated for 16 to 18 hrs by fluorescence microplate reader analysis; assay type: functional; conditions: time 16-18 hrs
Mus musculus [1] = test: Immunomodulatory activity in Kunming mouse infected with vancomycin-resistant Staphylococcus aureus assessed as increased in IL-10 level in peritoneal lavage at 10 mg/kg, ip administered 24 hrs before infection by ELISA; assay type: functional, organism-based
Mus musculus [2] = test: Immunomodulatory activity in Kunming mouse infected with vancomycin-resistant Staphylococcus aureus assessed as increased in CXCL1/KC level in peritoneal lavage at 10 mg/kg, ip administered 4 hrs after infection by ELISA; assay type: functional, organism-based
RAW264.7 = test: Induction of ROS production in mouse RAW 264.7 cells by fluorescence assay; assay type: functional, cell-based; conditions: dose 10-40 µg/ml

CC[C@H](C)[C@H](NC(=O)[C@@H]1CCCN1C(=O)[C@@H](NC(=O)[C@@H](NC(=O)CNC(=O)CNC(=O)[C@@H](NC(=O)[C@H](Cc1ccccc1)NC(=O)[C@@H](NC(=O)[C@H](CCCCN)NC(=O)[C@@H](NC(=O)[C@H](CCCCN)NC(=O)[C@H](CCCCN)NC(=O)[C@H](Cc1ccccc1)NC(=O)[C@@H](NC(=O)[C@H](CCCCN)NC(=O)[C@H](CCCNC(=N)N)NC(=O)[C@H](Cc1ccccc1)NC(=O)CNC(=O)[C@H](CCCCN)NC(=O)[C@H](CCCCN)NC(=O)[C@@H](NC(=O)[C@H](CCCCN)NC(=O)[C@H](CCCNC(=N)N)NC(=O)[C@H](Cc1ccccc1)NC(=O)[C@H](Cc1ccccc1)NC(=O)[C@H](CCCCN)NC(=O)[C@H](CCCCN)NC(=O)[C@H](Cc1ccccc1)NC(=O)[C@H](CCCNC(=N)N)NC(=O)[C@@H](N)CCCCN)[C@@H](C)CC)[C@@H](C)CC)[C@@H](C)O)[C@@H](C)CC)[C@@H](C)CC)[C@@H](C)O)[C@@H](C)CC)C(=O)O (H-KRFKKFFRKIKKGFRKIFKKTKIFIGGTIPI-OH)
MIC (Escherichia coli): 1.17 µg/mL (≈ 0.308 µM)
Activity (Mus musculus [1]): Active
Activity (Mus musculus [2]): Active
Activity (RAW264.7): Dose-dependent effect
